# In patent publication US9822127B2, “GAK modulators as antivirals” (Katholieke Universiteit Leuven, priority 2014, dated 2017):
# Where two headings read alike, the source gives them in different places.
# Experiments:
# GAK = biological target: T1, GAK (Homo sapiens, UniProt O14976); assay: GAK binding assay (T7 phage kinase competition binding); conditions: for % Ctrl: 10 µM; for remaining binding at 10 µM: read-out: % Ctrl
# T1 construct: made in house; host or cells: T7 phage grown in E. coli host derived from BL21
# T1 sequence (O14976 1-1311): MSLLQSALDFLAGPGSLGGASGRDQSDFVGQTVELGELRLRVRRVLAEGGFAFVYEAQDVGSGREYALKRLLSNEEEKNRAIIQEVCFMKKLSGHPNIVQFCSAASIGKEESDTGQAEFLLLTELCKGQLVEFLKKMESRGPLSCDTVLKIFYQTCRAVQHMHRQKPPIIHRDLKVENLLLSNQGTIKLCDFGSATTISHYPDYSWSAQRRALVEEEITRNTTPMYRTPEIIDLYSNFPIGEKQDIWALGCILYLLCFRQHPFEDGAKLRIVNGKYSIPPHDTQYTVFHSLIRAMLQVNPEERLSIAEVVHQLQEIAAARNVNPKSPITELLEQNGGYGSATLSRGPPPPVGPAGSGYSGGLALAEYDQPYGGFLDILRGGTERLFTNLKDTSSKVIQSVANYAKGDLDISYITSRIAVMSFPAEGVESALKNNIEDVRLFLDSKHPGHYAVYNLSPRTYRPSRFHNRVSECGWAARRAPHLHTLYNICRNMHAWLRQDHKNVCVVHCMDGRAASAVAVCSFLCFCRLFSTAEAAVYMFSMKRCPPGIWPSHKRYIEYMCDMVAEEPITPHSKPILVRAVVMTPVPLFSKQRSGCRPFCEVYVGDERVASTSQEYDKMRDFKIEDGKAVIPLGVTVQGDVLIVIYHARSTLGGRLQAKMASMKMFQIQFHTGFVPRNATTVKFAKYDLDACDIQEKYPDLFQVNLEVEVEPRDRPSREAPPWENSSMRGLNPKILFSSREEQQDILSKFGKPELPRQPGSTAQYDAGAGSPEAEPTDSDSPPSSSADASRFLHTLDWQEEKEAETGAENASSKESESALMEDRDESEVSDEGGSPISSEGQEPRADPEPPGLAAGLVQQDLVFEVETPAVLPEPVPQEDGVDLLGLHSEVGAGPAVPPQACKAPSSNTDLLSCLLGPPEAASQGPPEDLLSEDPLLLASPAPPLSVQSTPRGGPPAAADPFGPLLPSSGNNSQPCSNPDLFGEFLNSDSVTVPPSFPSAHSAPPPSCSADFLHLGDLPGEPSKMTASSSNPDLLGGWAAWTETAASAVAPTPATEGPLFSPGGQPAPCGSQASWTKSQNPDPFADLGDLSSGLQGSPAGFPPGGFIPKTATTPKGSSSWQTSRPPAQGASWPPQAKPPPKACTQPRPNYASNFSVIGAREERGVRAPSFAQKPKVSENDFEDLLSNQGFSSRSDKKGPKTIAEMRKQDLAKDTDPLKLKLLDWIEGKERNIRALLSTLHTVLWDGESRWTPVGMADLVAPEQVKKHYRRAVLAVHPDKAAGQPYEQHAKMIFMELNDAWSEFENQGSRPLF
# [1] = Cytotoxicity in CPE assay, Vero76; conditions: African green monkey
# [2] = system: SARS Coronavirus (Virus strain: Urbani); assay: microbe, parasite or virus in culture; format: cell-based
# Vero76 = conditions: African green monkey
# in vitro = conditions: African green monkey
# [3] = single concentration of 10 μM, lower numbers indicate stronger hits
# [4] = Severe acute respiratory syndrome coronavirus, Vero 76
compound,measurement,setting,value
"6-bromo-6-ethanolamino-isothiazolo[4,3-b]pyridine [Example 12]",% Ctrl,GAK,62%
"Nc1snc2cc(-c3ccccc3)cnc12 [Example 4, 3-amino-6-phenyl-isothiazolo[4,3-b]-pyridine]",remaining binding at 10 µM,GAK; [3],68%
"Nc1snc2cc(-c3cccnc3)cnc12 [Example 5, 3-amino-6-(3-pyridyl)-isothiazolo[4,3-b]pyridine]",remaining binding at 10 µM,GAK; [3],80%
"COc1ccc(-c2cnc3c(N)snc3c2)cc1OC [Example 6, 3-amino-6-(3,4-dimethoxyphenyl)-isothiazolo[4,3-b]pyridine]",remaining binding at 10 µM,GAK; [3],70%
"Nc1snc2cc(-c3ccc(F)cc3)cnc12 [Example 7, 3-amino-6-(4-fluorophenyl)-isothiazolo[4,3-b]pyridine]",remaining binding at 10 µM,GAK; [3],55%
"Nc1snc2cc(-c3ccsc3)cnc12 [Example 8, 3-amino-6-(3-thienyl)-isothiazolo[4,3-b]pyridine]",remaining binding at 10 µM,GAK; [3],61%
"COc1snc2cc(Br)cnc12 [Example 14, 3-methoxy-6-bromo-isothiazolo[4,3-b]pyridine]",% Ctrl,GAK; [3],87%
"c1ccc(-c2cnc3c(N4CCOCC4)snc3c2)cc1 [Example 23, 3-morpholino-6-phenyl-isothiazolo[4,3-b]pyridine]",CC50,"[1]; CC50, Neutral Red",50 µg/mL
same,CC50,"[1]; CC50, Visual",34 µg/mL
same,EC50,[2],4.4 µg/mL
same,EC50,[2]; [4],4.5 µg/mL
same,Kd,GAK,0.5 µM
same,remaining binding at 10 µM,GAK; [3],0.8%
Fc1ccc(-c2cnc3c(N4CCOCC4)snc3c2)cc1 [Example 24],remaining binding at 10 µM,GAK; [3],11%
"c1cncc(-c2cnc3c(N4CCOCC4)snc3c2)c1 [Example 25, 3-morpholino-6-(3-pyridyl)-isothiazolo[4,3-b]pyridine]",remaining binding at 10 µM,GAK; [3],25%
COc1ccc(-c2cnc3c(N4CCOCC4)snc3c2)cc1OC [Example 26],remaining binding at 10 µM,GAK; [3],0%
c1cc(-c2cnc3c(N4CCOCC4)snc3c2)cs1 [Example 27],remaining binding at 10 µM,GAK; [3],0.1%
OCCNc1snc2cc(-c3cccnc3)cnc12 [Example 28],remaining binding at 10 µM,GAK; [3],45%
"OCCNc1snc2cc(-c3ccsc3)cnc12 [Example 30, 3-ethanolamino-6-(3-thienyl)-isothiazolo[4,3-b]pyridine]",Kd,GAK,0.3 µM
same,remaining binding at 10 µM,GAK; [3],0.3%
"OCCNc1snc2cc(-c3ccccc3)cnc12 [Example 31, 3-ethanolamino-6-phenyl-isothiazolo[4,3-b]pyridine]",remaining binding at 10 µM,GAK; [3],18%
"OCCNc1snc2cc(-c3ccc(F)cc3)cnc12 [Example 32, 3-ethanolamino-6-(3-(4-fluorophenyl))-isothiazolo[4,3-b]pyridine]",remaining binding at 10 µM,GAK; [3],2.2%
"COc1snc2cc(-c3ccc(F)cc3)cnc12 [Example 34, 3-methoxy-6-(4-fluoro-phenyl)-isothiazolo[4,3-b]pyridine]",remaining binding at 10 µM,GAK; [3],37%
COc1snc2cc(-c3cccnc3)cnc12 [Example 35],% Ctrl,GAK,93%
COc1ccc(-c2cnc3c(OC)snc3c2)cc1OC [Example 36],% Ctrl,GAK,19%
COc1snc2cc(-c3ccsc3)cnc12 [Example 37],% Ctrl,GAK,22%
CN1CCN(c2snc3cc(-c4ccccc4)cnc23)CC1 [Example 38],remaining binding at 10 µM,GAK; [3],76%
"CN1CCN(c2snc3cc(-c4cccnc4)cnc23)CC1 [Example 39, 3-(N-Me-piperazinyl)-6-(3-pyridyl)-isothiazolo[4,3-b]pyridine]",remaining binding at 10 µM,GAK; [3],88%
"COc1ccc(-c2cnc3c(N4CCN(C)CC4)snc3c2)cc1OC [Example 40, 3-(N-Me-piperazinyl)-6-(3,4-dimethoxyphenyl)-isothiazolo[4,3-b]pyridine]",remaining binding at 10 µM,GAK; [3],19%
"CN1CCN(c2snc3cc(-c4ccsc4)cnc23)CC1 [Example 41, 3-(N-Me-piperazinyl)-6-(3-thienyl)-isothiazolo[4,3-b]pyridine]",remaining binding at 10 µM,GAK; [3],7.4%
"CN1CCN(c2snc3cc(-c4ccc(F)cc4)cnc23)CC1 [Example 42, 3-(N-Me-piperazinyl)-6-(4-fluorophenyl)-isothiazolo[4,3-b]pyridine]",remaining binding at 10 µM,GAK; [3],72%
"c1csc(-c2cnc3c(N4CCOCC4)snc3c2)c1 [Example 43, 4-(6-(Thiophen-2-yl)isothiazolo[4,3-b]pyridin-3-yl)morpholine]",Kd,GAK,0.047 µM
same,remaining binding at 10 µM,GAK; [3],0.05%
"COc1ccc(OC)c(-c2cnc3c(N4CCOCC4)snc3c2)c1 [Example 44, 4-(6-(2,5-Dimethoxyphenyl)isothiazolo[4,3-b]pyridin-3-yl)morpholine]",remaining binding at 10 µM,GAK; [3],0.7%
"COc1ccc(-c2cnc3c(N4CCOCC4)snc3c2)c(OC)c1 [Example 45, 4-(6-(2,4-Dimethoxyphenyl)isothiazolo[4,3-b]pyridin-3-yl)morpholine]",remaining binding at 10 µM,GAK; [3],6.3%
"COc1cc(-c2cnc3c(N4CCOCC4)snc3c2)ccc1OC(C)=O [Example 47, 2-Methoxy-4-(3-morpholinoisothiazolo[4,3-b]pyridin-6-yl)phenyl acetate]",remaining binding at 10 µM,GAK; [3],0%
"COc1cc(OC)cc(-c2cnc3c(N4CCOCC4)snc3c2)c1 [Example 48, 4-(6-(3,5-Dimethoxyphenyl)isothiazolo[4,3-b]pyridin-3-yl)morpholine]",remaining binding at 10 µM,GAK; [3],0.2%
"c1cc2c(cc1-c1cnc3c(N4CCOCC4)snc3c1)OCO2 [Example 51, 4-(6-(Benzo[d][1,3]dioxol-5-yl)isothiazolo[4,3-b]pyridin-3-yl)morpholine]",remaining binding at 10 µM,GAK; [3],51%
"c1cc(-c2cnc3c(N4CCOCC4)snc3c2)co1 [Example 52, 4-(6-(Furan-3-yl)isothiazolo[4,3-b]pyridin-3-yl)morpholine]",EC50,[2],49 µg/mL
same,EC50,[2]; [4],44 µg/mL
same,CC50,Vero76,>100 µg/mL
same,remaining binding at 10 µM,GAK; [3],0.15%
same,CC50,in vitro,> 100 µg/mL
"COc1ccc(-c2cnc3c(N4CCSCC4)snc3c2)cc1OC [Example 58, 6-(3,4-dimethoxyphenyl)-3-thiomorpholinoisothiazolo[4,3-b]pyridine]",Kd,GAK,0.23 µM
same,remaining binding at 10 µM,GAK; [3],0.8%
"COc1cc(-c2cnc3c(N4CCOCC4)snc3c2)ccc1O [Example 64, 2-methoxy-4-(3-morpholinoisothiazolo[4,3-b]pyridin-6-yl)phenol]",CC50,"[1]; CC50, Neutral Red",0.97 µg/mL
same,CC50,"[1]; CC50, Visual",0.42 µg/mL
same,remaining binding at 10 µM,GAK; [3],0%
"COc1ccc(-c2cnc3c(N4CCC(O)CC4)snc3c2)cc1OC [Example 66, 1-(6-(3,4-dimethoxyphenyl)-isothiazolo[4,3-b]pyridin-3-yl)piperidin-4-ol]",EC50,[2],38 µg/mL
same,EC50,[2]; [4],50 µg/mL
same,CC50,Vero76,>100 µg/mL
same,CC50,in vitro,> 100 µg/mL
"COc1ccc(-c2cnc3c(N(CCO)CCO)snc3c2)cc1OC [Example 70, 2,2′-(6-(3,4-dimethoxyphenyl)isothiazolo[4,3-b]pyridin-3-ylazanediyl)diethanol]",Kd,GAK,0.32 µM
same,remaining binding at 10 µM,GAK; [3],4%
"COc1ccc(-c2cnc3c(N4CCCC4)snc3c2)cc1OC [Example 73, 6-(3,4-dimethoxyphenyl)-3-(pyrrolidin-1-yl)isothiazolo[4,3-b]pyridine]",Kd,GAK,0.1 µM
same,remaining binding at 10 µM,GAK; [3],0%
"COc1ccc(-c2cnc3c(NCCc4ccccc4)snc3c2)cc1OC [Example 74, 6-(3,4-dimethoxyphenyl)-N-phenethylisothiazolo[4,3-b]pyridin-3-amine]",EC50,[2],5.8 µg/mL
same,EC50,[2]; [4],4.5 µg/mL
same,CC50,Vero76,>100 µg/mL
same,remaining binding at 10 µM,GAK; [3],81%
same,CC50,in vitro,> 100 µg/mL
"COc1ccc(-c2cnc3c(NCC4CC4)snc3c2)cc1OC [Example 76, N-(cyclopropylmethyl)-6-(3,4-dimethoxyphenyl)isothiazolo[4,3-b]pyridin-3-amine]",CC50,"[1]; CC50, Neutral Red",33 µg/mL
same,CC50,"[1]; CC50, Visual",18 µg/mL
same,EC50,[2],0.54 µg/mL
same,EC50,[2]; [4],0.86 µg/mL
same,Kd,GAK,0.027 µM
same,remaining binding at 10 µM,GAK; [3],0%
